Patent publication EP4417607A1, “HETEROCYCLIC COMPOUND AS SOS1 INHIBITOR AND USES THEREOF” (Nanjing Zaiming Pharmaceutical Co., Ltd., priority 2021, dated 2023)

How the values were obtained:
[1] = test system: H358 cells; test: H358 cell proliferation inhibition (CellTiter-Glo luminescent cell viability assay); assay type: cell-based; conditions: 7 days
Method: The effect of the compounds of the present invention on H358 cell proliferation was assessed by CellTiter-Glo luminescent cell viability assay kit method.
H358 cells (ATCC, CRL-5807) were cultured in RPMI1640 (Hyclone, SH30256.01) complete medium containing 10% FBS (Gibco, 10100147) and 100 U/mL penicillin-streptomycin mixed solution (Gibco, 15140163). When the cells grew to 80-90%, the cells were digested, pipetted, and seeded in a 96-well plate (Corning, 4515) at 3000 cells/well (180 µL RPMI1640 complete medium), and then the 96-well plate was incubated overnight in an incubator at 37 °C with 5% CO2.
After incubation overnight, 20 µL of a diluted test compound was added to each well using a multi-channel pipette, and the 96-well plate was placed in an incubator at 37 °C with 5% CO2 for further culture. After 7 days, 100 µL of the supernatant was pipetted and discarded. 50 µL of CellTiter-Glo® 3D Cell Viability Assay liquid was added to each well. The plate was shaken at room temperature at 450 rpm for 30 min. After the cells were completely lysed, "Luminescence" on the microplate reader was selected for plate reading. In this experiment, the cell-free group (replaced with 1640 medium) was used as the 100% inhibition group, and the compound-free group in which the cell was added was used as the 0% inhibition group.
The inhibition percentage of H358 cell proliferation by the compounds of the present invention could be calculated by the following formula: [formula]
(§1) IC50 values of the compounds were calculated from 8 concentration points using XLfit (ID Business Solutions Ltd., UK) software by the following formula: Y = Bottom + (Top−Bottom)/(1+10^(∧)((logIC50−X)×slopefactor)) [formula]
Y is the inhibition percentage, X is the logarithmic value of the concentration of the test compound, Bottom is the minimum inhibition percentage, Top is the maximum inhibition percentage, and slope factor is the slope coefficient of the curve.

[2] = test system: p-ERK pathway in H358 cells; test: p-ERK pathway inhibition in H358 cells (Advanced phospho-ERK (Thr202/Tyr204) cellular kit, HTRF); assay type: cell-based; conditions: Homo sapiens, NCI-H358, 1 h compound incubation
Method: The effect of the compounds of the present invention on H358 cell p-ERK pathway was assessed by Advanced phospho-ERK (Thr202/Tyr204) cellular kit method.
The experimental procedures were summarized as follows: H358 cells (ATCC, CRL-5807) were cultured in RPMI1640 (ThermoFisher, A1049101) complete medium containing 10% FBS (Gibco, 10100147) and 100 U/mL penicillin-streptomycin mixed solution (Gibco, 15140163). When the coverage of the cells in the culture vessel reached 80-90%, the cells were pipetted and seeded in a 96-well plate (Corning, 3599) at 50000 cells/well (90 µL RPMI1640 complete medium), and the plate was left to stand for 5 min, cultured in an incubator at 37 °C with 5% CO2 for 6 h, replaced with a serum-free RPMI1640, and starved overnight.
After incubation overnight, 10 µL of a diluted test compound was added to each well using a multi-channel pipette, and the 96-well plate was cultured in an incubator at 37 °C with 5% CO2 for 1 h. The supernatant was poured. The cells were washed once with PBS. 50 µL of a lysis buffer (Advanced phospho-ERK (Thr202/Tyr204) cellular kit, 64AERPEH) was added to each well. The plate was shaken at room temperature at 450 rpm for 1 h. After the cells were completely lysed, 16 µL of the supernatant was added to a 384-well plate (PE, 6007299), mixed energy donor Eu and energy acceptor D2 (D2/Eu = 1:1) were added, and the plate was incubated at room temperature for 4 h. HTRF on the microplate reader was selected for plate reading, Ratio = Signal 665 nm/Signal 620 nm × 10^4. In this experiment, the cell-free group (replaced with 1640 medium) was used as the 100% inhibition group, and the compound-free group in which the cell was added was used as the 0% inhibition group.
The inhibition percentage of H358 cell p-ERK pathway by the compounds of the present invention could be calculated by the following formula: [formula]
as §1
Y is the inhibition percentage, X is the logarithmic value of the concentration of the test compound, Bottom is the minimum inhibition percentage, Top is the maximum inhibition percentage, and slope factor is the slope coefficient of the curve. The default fitted curve was used to fit the slope of the S-shaped curve to determine the IC50 value. Table 2. Results of p-ERK inhibition test by the compounds of the present invention

| Compound | IC50 ([1]; Homo sapiens, NCI-H358, 168 h) [nM] | IC50 [2] [nM] | IC50 [1] [nM] |
| --- | --- | --- | --- |
| [2H][C@](C)(Nc1nc(C)nc2c(N3CCOCC3)c(=O)n(N3CCOCC3)cc12)c1cccc(C(F)F)c1F [Example 78, (R)-4-((1-(3-(difluoromethyl)-2-fluorophenyl)ethyl-1-d)amino)-2-methyl-6,8-dimorpholinepyrido[4,3-d]pyrimidine-7(6H)-one] | 71.1 | 39.6 | – |
| Cc1nc(N[C@H](C)c2cccc(C#N)c2C)c2cn(C3(CF)CC3)c(=O)c(-c3ccc(C#N)nc3)c2n1 [Example 67, (R)-5-(4-((1-(3-cyano-2-methylphenyl)ethyl)amino)-6-(1-(fluoromethyl)cyclopropyl)-2-methyl-7-oxo-6,7-dihydropyrido[4,3-d]pyrimidin-8-yl)pyridinecarbonitrile] | 118 | – | – |
| CCN(CC)c1c(=O)n(C2(CF)CC2)cc2c(N[C@H](C)c3cccc(C(F)F)c3F)nc(C)nc12 [Example 96, (R)-8-(diethylamino)-4-((1-(3-(difluoromethyl)-2-fluorophenyl)ethyl)amino)-6-(1-(fluoromethyl)cyclopropyl)-2-methylpyrido[4,3-d]pyrimidine-7(6H)-one] | 50.5 | 95.5 | – |
| COc1c(=O)n(C2(C)CCN(C(C)=O)C2)cc2c(N[C@H](C)c3cccc(C(F)F)c3F)nc(C)nc12 (stereo partly drawn) [Example 7, 6-(1-acetyl-3-methylpyrrolidin-3-yl)-4-(((R)-1-(3-(difluoromethyl)-2-fluorophenyl)ethyl)amino)-8-methoxy-2-methylpyrido[4,3-d]pyrimidine-7(6H)-one] | 74.7 | – | – |
| Cc1nc(N[C@H](C)c2cccc(C(F)F)c2F)c2cn(C3(CF)CC3)c(=O)c(N3CCN(C4COC4)CC34CC4)c2n1 [Example 146, (R)-4-((1-(3-(difluoromethyl)-2-fluorophenyl)ethyl)amino)-6-(1-(fluoromethyl)cyclopropyl)-2-methyl-8-(7-(oxetan-3-yl)-4,7-diazaspiro [2.5]octan-4-yl)pyrido [4,3-d]pyrimidine-7(6H)-one] | 69.9 | – | – |
| Cc1nc(N[C@H](C)c2cccc(C(F)F)c2F)c2cn(C3(CF)CC3)c(=O)c(OC(C)C)c2n1 [Example 36, (R)-4-((1-(3-(difluoromethyl)-2-fluorophenyl)ethyl)amino)-6-(1-(fluoromethyl)cyclopropyl)-8-isopropoxy-2-methylpyrido[4,3-d]pyrimidine-7(6H)-one] | 64.8 | 69.1 | – |
| Cc1nc(N[C@H](C)c2cccc(C(F)F)c2F)c2cn(N3CCOCC3)c(=O)c(-c3cnc4c(cnn4C)c3)c2n1 [Example 100] | 80.8 | 49.8 | – |
| Cc1nc(N[C@H](C)c2cccc(C#N)c2C)c2cn(C3(CF)CC3)c(=O)c(N3CCN(C)CC3)c2n1 [Example 74, (R)-3-(1-((6-(1-(fluoromethyl)cyclopropyl)-2-methyl-8-(4-methylpiperazin-1-yl)-7-oxo-6,7-dihydropyrido[4,3-d]pyrimidin-4-yl)amino)ethyl)-2-methylbenzonitrile] | 84.7 | – | – |
| Cc1nc(N[C@H](C)c2cccc(C#N)c2C)c2cn(N3CCOCC3)c(=O)c(-c3ccc(C#N)nc3)c2n1 [Example 64, (R)-5-(4-((1-(3-cyano-2-methylphenyl)ethyl)amino)-2-methyl-6-morpholine-7-oxo-6,7-dihydropyrido[4,3-d]pyrimidin-8-yl)pyridinecarbonitrile] | 40.7 | – | – |
| Cc1nc(N[C@H](C)c2cccc(C(F)F)c2F)c2cn(C3(CF)CC3)c(=O)c(OC(=O)N3CCN(C)CC3)c2n1 [Example 86, (R)-4-((1-(3-(difluoromethyl)-2-fluorophenyl)ethyl)amino)-6-(1-(fluoromethyl)cyclopropyl)-2-methyl-7-oxo-6,7-dihydropyrido[4,3-d]pyrimidin-8-yl-4-methylpiperazine-1-carboxylate] | 121 | – | – |
| Cc1nc(N[C@H](C)c2cccc(C#N)c2C)c2cn(N3CCOCC3)c(=O)c(-c3ccc(N4CCCC4)nc3)c2n1 [Example 89, (R)-2-methyl-3-(1-((2-methyl-6-morpholinyl-7-oxo-8-(6-(pyrrolidin-1-yl)pyridin-3-yl)-6,7-dihydropyrido[4,3-d]pyrimidin-4-yl)amino)ethyl)benzonitrile] | 134 | – | – |
| Cc1nc(N[C@H](C)c2cccc(C(F)F)c2F)c2cn(C3(CF)CC3)c(=O)c(Oc3cnn(C)c3)c2n1 [Example 60, (R)-4-((1-(3-(difluoromethyl)-2-fluorophenyl)ethyl)amino)-6-(1-(fluoromethyl)cyclopropyl)-2-methyl-8-((1-methyl-1H-pyrazol-4-yl)oxy)pyrido[4,3-d)pyrimidine-7(6H)-one] | 162 | – | – |
| (R)-4-((1-(3-(difluoromethyl)-2-fluorophenyl)ethyl)amino)-8-ethoxy-6-(1-(fluoromethyl)cyclopropyl)-2-methylpyrido[4,3-d]pyrimidine-7(6H)-one [Example 10] | – | – | 41.6 |
| Cc1nc(N[C@H](C)c2cccc(C(F)F)c2F)c2cn(C3(CF)CC3)c(=O)c(N)c2n1 [Example 59, (R)-8-amino-4-((1-(3-(difluoromethyl)-2-fluorophenyl)ethyl)amino)-6-(1-(fluoromethyl)cyclopropyl)-2-methylpyrido[4,3-d]pyrimidine-7(6H)-one] | 162 | – | – |

Next, values leading:

| IC50 ([1]; Homo sapiens, NCI-H358, 168 h) [nM] | IC50 [2] [nM] | IC50 [1] [nM] | Compound |
| --- | --- | --- | --- |
| 115 | 63.1 | – | Cc1nc(N[C@H](C)c2cccc(C(F)F)c2F)c2cn(N3CCOCC3)c(=O)c(-c3cnn4c3COCC4)c2n1 [Example 138, (R)-4-((1-(3-(difluoromethyl)-2-fluorophenyl)ethyl)amino)-8-(6,7-dihydro-4H-pyrazolo[5,1-c][1,4]oxazin-3-yl)-2-methyl-6-morpholinylpyrido[4,3-d]pyrimidine-7(6H)-one] |
| 136 | – | – | Cc1nc(N[C@H](C)c2cccc(C(F)F)c2F)c2cn(N3CCOCC3)c(=O)c(Oc3ccnc(C#N)c3)c2n1 [Example 118, (R)-4-((4-((1-(3-(difluoromethyl)-2-fluorophenyl)ethyl)amino)-2-methyl-6-morpholino-7-oxo-6,7-dihydropyrido[4,3-d]pyrimidin-8-yl)oxy)pyridinecarbonitrile] |
| 84.8 | – | – | Cc1nc(N[C@H](C)c2cccc(C(F)F)c2F)c2cn(C3(CF)CC3)c(=O)c(NC(=O)c3ccccn3)c2n1 [Example 157] |
| 154 | – | – | Cc1nc(N[C@H](C)c2cccc(C(F)F)c2F)c2cn(C3(CF)CC3)c(=O)c(OCC3CC3)c2n1 [Example 35, (R)-8-(cyclopropylmethoxy)-4-((1-(3-(difluoromethyl)-2-fluorophenyl)ethyl)amino)-6-(1-(fluoromethyl)cyclopropyl)-2-methylpyrido[4,3-d]pyrimidine-7(6H)-one] |
| 61.4 | – | – | COc1c(=O)n(C2(CF)CC2)cc2c(N[C@H](C)c3cccc(C#N)c3C)nc(C)nc12 [Example 3, (R)-3-(1-((6-(1-(fluoromethyl)cyclopropyl)-8-methoxy-2-methyl-7-oxo-6,7-dihydropyrido[4,3-d]pyrimidin-4-yl)amino)ethyl)-2-methylbenzonitrile] |
| 116 | – | – | Cc1nc(N[C@H](C)c2cccc(C(F)F)c2F)c2cn(C3(CF)CC3)c(=O)c(N3CCC4(COC4)C3)c2n1 [Example 154] |
